Here are results for 31 molecules from US6767907B2, “4-aryl-1-(indanmethyl dihydrobenzofuranmethyl or dihydrobenzothiophenemethyl) piperidines tetrahydropyridines or piperazines” (H. Lundbeck A/S, priority 1994, dated 2004).

Structures can show the parent of a compound that is named as a salt. Where two headings read alike, the source gives them in different places.

One data set concerns the target T1, 5-HT2A receptors (Rattus norvegicus, UniProt P14842).
T1 construct: 5-HT2A receptors in membranes from rat is determined in vitro; from tissue; host or cells: rat cortex membranes
As to the kind of experiment: Inhibition of 3H-Ketanserin binding to 5-HT2 receptors in rat cortex in vitro. On the procedure:
Inhibition of ^3H-Ketanserin Binding to 5-HT2 Receptors in Rat Cortex in vitro.
By this method the inhibition by drugs of the binding of ^3H-Ketanserin (0.5 nM) to 5-HT2A receptors in membranes from rat is determined in vitro .

In another data set the target is T2, 5-HT1A receptors (Rattus norvegicus, UniProt P19327).
T2 construct: 5-HT1A receptors in membranes from rat brain minus cerebellum; from tissue; host or cells: rat brain minus cerebellum, membranes
T2 sequence (P19327 1-422): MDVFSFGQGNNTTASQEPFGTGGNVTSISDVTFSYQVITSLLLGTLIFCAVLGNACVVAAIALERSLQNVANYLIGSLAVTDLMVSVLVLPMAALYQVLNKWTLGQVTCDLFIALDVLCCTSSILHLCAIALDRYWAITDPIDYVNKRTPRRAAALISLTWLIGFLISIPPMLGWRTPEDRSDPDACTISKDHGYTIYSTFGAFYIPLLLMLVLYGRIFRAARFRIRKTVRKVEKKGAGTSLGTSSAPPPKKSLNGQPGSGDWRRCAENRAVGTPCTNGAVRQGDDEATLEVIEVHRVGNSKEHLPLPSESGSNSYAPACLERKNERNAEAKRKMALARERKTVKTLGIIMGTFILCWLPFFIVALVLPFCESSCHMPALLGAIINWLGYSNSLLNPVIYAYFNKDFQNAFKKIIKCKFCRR
Nature of the data set: Inhibition of 3H-8-OH-DPAT binding to serotonin 5-HT1A receptors in rat brain in vitro. How it is done:
By this method the inhibition by drugs of the binding of the 5-HT1A agonist ^3H-8-OH-DPAT (1 nM) to 5-HT1A receptors in membranes from rat brain minus cerebellum is determined in vitro . Accordingly, this is a test for affinity for the 5-HT1A receptor. The test is performed as described by Hyttel et al., Drug. Dev. Res., 1988, 15, 389-404.

Where [1] appears, read: 3H-Ketanserin 0.5 nM, membranes from rat cortex, read-out: 3H Ketanserin (5-HT2A) binding, IC50.
Setting [2] is: 3H-8-OH-DPAT 1 nM, membranes from rat brain minus cerebellum, read-out: 3H 8-OH DPAT (5-HT1A) binding, IC50.

T1 sequence (P14842 whole entry): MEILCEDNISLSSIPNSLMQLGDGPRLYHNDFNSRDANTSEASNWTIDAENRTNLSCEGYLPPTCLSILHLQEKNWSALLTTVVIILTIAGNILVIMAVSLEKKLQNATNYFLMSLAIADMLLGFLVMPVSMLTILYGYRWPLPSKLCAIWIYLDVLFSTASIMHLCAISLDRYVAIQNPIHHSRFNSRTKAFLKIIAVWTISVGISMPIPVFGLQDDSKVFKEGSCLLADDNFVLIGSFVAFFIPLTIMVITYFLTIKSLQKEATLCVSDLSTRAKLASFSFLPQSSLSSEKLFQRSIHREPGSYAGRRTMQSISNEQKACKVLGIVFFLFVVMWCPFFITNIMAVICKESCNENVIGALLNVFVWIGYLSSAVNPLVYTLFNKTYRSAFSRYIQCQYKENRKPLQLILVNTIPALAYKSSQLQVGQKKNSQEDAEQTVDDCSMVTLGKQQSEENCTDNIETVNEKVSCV

As for `CC(=O)Nc1ccc2c(c1)C(CN1CC=C(c3c[nH]c4cc(Cl)ccc34)CC1)CC2` (stereo not drawn) (as salt: oxalate) (hydrate or solvate) [Compound 11e, 3-[1-(6-Acetylaminoindan-1-ylmethyl)-1,2,3,6-tetrahydropyridin-4-yl]-6-chloro-1H-indole], the melting point fell in the range of 151 to 164 °C.

On to `CC(=O)Nc1ccc2c(c1)C(CN1CCC(c3cn(C)c4cc(Cl)ccc34)CC1)CC2` (stereo not drawn) [Compound 15b, 3-[1-(6-Acetylaminoindan-1-ylmethyl)piperidin-4-yl]-6-chloro-1-m ethyl-1H-indole], for which, at 5-HT2A receptors (setting [1]), the concentration for half-maximal inhibition (IC50) came to 300 nM. Also, the inhibition at 0.1 µM at 5-HT1A receptors (read-out: 3H 8-OH DPAT (5-HT1A) binding, % inhibition of binding at 100 nM, at 100 nM, 3H-8-OH-DPAT 1 nM, rat brain membranes) turned out to be 25%.

As for `CC(=O)Nc1ccc2c(c1)C(CN1CCC(c3c[nH]c4ccc(F)cc34)CC1)CC2` (stereo not drawn) [Compound 11c, 3-[1-(6-Acetylaminoindan-1-ylmethyl)piperidin-4-yl]-5-fluoro-1H-indole], the values for the concentration for half-maximal inhibition (IC50) on 5-HT2A receptors (setting [1]) and on 5-HT1A receptors (setting [2]) were 15 nM and 16 nM, respectively. Consider `CC(=O)Nc1ccc2c(c1)C(CN1CCC(n3ccc4cc(Cl)ccc43)CC1)CC2` (stereo not drawn), for which the melting point was 189 to 191 °C. Regarding `CC(=O)Nc1ccc2c(c1)C(CN1CCC(c3c[nH]c4ccc(Cl)cc34)CC1)CS2` (stereo not drawn) [Compound 11a, 3-[1-(5-Acetylamino-2,3-dihydrobenzothiophen-3-ylmethyl)piperidin-4-yl]-5-chloro-1H-indole], the IC50 on 5-HT2A receptors (setting [1]) came out at 42 nM; at 5-HT1A receptors (setting [2]) it was 28 nM. In the case of `CNC(=S)Nc1ccc2c(c1)C(CN1CCC(c3ccc(F)cc3)CC1)CC2` (stereo not drawn) [Compound 5c, 4-(4-Fluorophenyl)-1-(6-methylaminothiocarbonylaminoindan-1-ylmethyl)piperidine], the half-inhibitory concentration (IC50) is 3.9 nM on 5-HT2A receptors (setting [1]) and above 1000 nM at 5-HT1A receptors (setting [2]). On to `CC(=O)Nc1ccc2c(c1)C(CN1CCC(c3c[nH]c4cc(Cl)ccc34)CC1)CC2` (stereo not drawn) [Compound 11f, 3-[1-(6-Acetylaminoindan-1-ylmethyl)piperidin-4-yl]-6-chloro-1H-indole], for which the IC50 on 5-HT2A receptors (setting [1]) was determined as 21 nM; at 5-HT1A receptors (setting [2]) it was 8 nM. On to `CC(=O)Nc1ccc2c(c1)C(CN1CC=C(c3c[nH]c4ccc(F)cc34)CC1)CS2` (stereo not drawn) [Compound 11d, 3-[1-(5-Acetylamino-2,3-dihydrobenzothiophen-3-ylmethyl)-1,2,3,6-tetrahydropyridin-4-yl]-5-fluoro-1H-indole], for which the 50% inhibitory concentration (IC50) on 5-HT2A receptors (setting [1]) is 15 nM; on 5-HT1A receptors (setting [2]), 29 nM.

Regarding `CN(C)C(=O)Nc1ccc2c(c1)C(CN1CCC(c3ccc(F)cc3)CC1)CC2` (stereo not drawn) [Compound 6a, 1-(6-Dimethylaminocarbonylaminoindan-1-ylmethyl)-4-(4-fluorophenyl)piperidine], the 50% inhibitory concentration (IC50) on 5-HT2A receptors (setting [1]) stood at 9.1 nM; on 5-HT1A receptors (setting [2]) it was 1200 nM. `NC(=O)Nc1ccc2c(c1)C(CN1CCC(c3ccc(F)cc3)CC1)CC2` (stereo not drawn) [Compound 7a, 1-(6-Aminocarbonylaminoindan-1-ylmethyl)-4-(4-fluorophenyl)piperidine]: the IC50 on 5-HT2A receptors (setting [1]) is 2.6 nM; on 5-HT1A receptors (setting [2]) it was 13 nM. Consider `CC(=O)Nc1ccc2c(c1)C(CN1CC=C(c3c[nH]c4ccc(Cl)cc34)CC1)CC2` (stereo not drawn) (as salt: oxalate) [Compound 11g, 3-[1-(6-Acetylaminoindan-1-ylmethyl)-1,2,3,6-tetrahydropyridin-4-yl]-5-chloro-1H-indole], for which the melting point lay in the range of 220 to 223 °C. As to `COc1ccccc1N1CCN(CC2CCc3ccc(NC(C)=O)cc32)CC1` (stereo not drawn) (as salt: oxalate) [Compound 4g, 1-(6-Acetylaminoindan-1-ylmethyl)-4-(2-methoxyphenyl)piperazine], the melting point is 210 to 213 °C. With `COc1ccccc1N1CCN(CC2CCc3ccc(NC(C)=O)cc32)CC1` (stereo not drawn) [Compound 4g, 1-(6-Acetylaminoindan-1-ylmethyl)-4-(2-methoxyphenyl)piperazine], the values for the 50% inhibitory concentration (IC50) at 5-HT2A receptors (setting [1]) and at 5-HT1A receptors (setting [2]) were 280 nM and 31 nM, respectively.

As for `CS(=O)(=O)Nc1ccc2c(c1)C(CN1CC=C(c3ccc(Cl)cc3)CC1)CC2` (stereo not drawn) [Compound 4m, 4-(4-Chlorophenyl)-1-(6-methansulphonylaminoindan-1-ylmethyl)-1,2,3,6-tetrahydropyperidine], the results for the concentration for half-maximal inhibition (IC50) on 5-HT2A receptors and at 5-HT1A receptors (setting [2]) were 2.7 nM and 120 nM, respectively. As for `CC(=O)Nc1ccc2c(c1)C(CN1CCN(c3ccc4c(c3)OCO4)CC1)CC2` (stereo not drawn) [Compound 4q, 1-(6-Acetylaminoindan-1-ylmethyl)-4-(3,4-methylenedioxyphenyl)piperazine], the melting point was 188 to 189 °C.

In turn, `CNC(=S)Nc1ccc2c(c1)C(CN1CCC(c3ccc(F)cc3)CC1)CC2` (stereo not drawn) (as salt: fumarate) [Compound 5c, 4-(4-Fluorophenyl)-1-(6-methylaminothiocarbonylaminoindan-1-ylmethyl)piperidine] registered a melting point of 181 to 183 °C. In the case of `Nc1ccc2c(c1)C(CN1CCC(c3ccc(F)cc3)CC1)CC2` (stereo not drawn) (as salt: hydrochloride) [Compound 2a], the melting point was in the range of 198 to 201 °C. As to `CC(=O)Nc1ccc2c(c1)C(CN1CC=C(c3c[nH]c4ccc(Cl)cc34)CC1)CC2` (stereo not drawn) [Compound 11g, 3-[1-(6-Acetylaminoindan-1-ylmethyl)-1,2,3,6-tetrahydropyridin-4-yl]-5-chloro-1H-indole], the 50% inhibitory concentration (IC50) on 5-HT2A receptors (setting [1]) was found to be 180 nM; at 5-HT1A receptors it was 26 nM.

Consider `CC(=O)Nc1ccc2c(c1)C(CN1CC=C(c3c[nH]c4ccc(F)cc34)CC1)CS2` (stereo not drawn) (as salt: oxalate) [Compound 11d, 3-[1-(5-Acetylamino-2,3-dihydrobenzothiophen-3-ylmethyl)-1,2,3,6-tetrahydropyridin-4-yl]-5-fluoro-1H-indole], for which the melting point lay in the range of 155 to 165 °C. For `CC(=O)Nc1ccc2c(c1)C(CN1CCC(c3c[nH]c4ccc(F)cc34)CC1)CC2` (stereo not drawn) (as salt: oxalate) [Compound 11c, 3-[1-(6-Acetylaminoindan-1-ylmethyl)piperidin-4-yl]-5-fluoro-1H-indole], the melting point was in the range of 145 to 149 °C.

In turn, `CC(=O)Nc1ccc2c(c1)C(CN1CCC(c3c[nH]c4cc(Cl)ccc34)CC1)CC2` (stereo not drawn) (as salt: oxalate) [Compound 11f, 3-[1-(6-Acetylaminoindan-1-ylmethyl)piperidin-4-yl]-6-chloro-1H-indole] gave a melting point of 122 to 130 °C. On the same count and under the same terms, to `CS(=O)(=O)Nc1ccc2c(c1)C(CN1CC=C(c3ccc(Cl)cc3)CC1)CC2` (stereo not drawn) (as salt: oxalate) [Compound 4m, 4-(4-Chlorophenyl)-1-(6-methansulphonylaminoindan-1-ylmethyl)-1,2,3,6-tetrahydropyperidine] belongs 176 to 178 °C.

Turning to `Nc1ccc2c(c1)C(CN1CC=C(c3ccc(F)cc3)CC1)CC2` (stereo not drawn), the melting point was 78 to 84 °C. `CCOC(=O)Nc1ccc2c(c1)C(CN1CCC(c3ccc(F)cc3)CC1)CC2` (stereo not drawn) (as salt: fumarate) [Compound 4l, 1-(6-Ethyloxycarbonylaminoindan-1-ylmethyl)-4-(4-fluorophenyl)piperidine] came in with a melting point of 191 to 193 °C. Still for that read-out and setting: to `CNC(=O)Nc1ccc2c(c1)C(CN1CCN(c3ccc4c(c3)OCO4)CC1)CC2` (stereo not drawn) (as salt: oxalate) [Compound 5d, 1-(6-Methylaminocarbonylaminoindan-1-ylmethyl)-4-(3,4-methylendioxyphenyl)piperazine] belongs 132 to 133 °C; to `CC(=O)Nc1ccc2c(c1)C(CN1CCC(c3cn(C)c4cc(Cl)ccc34)CC1)CC2` (stereo not drawn) (as salt: oxalate) [Compound 15b, 3-[1-(6-Acetylaminoindan-1-ylmethyl)piperidin-4-yl]-6-chloro-1-m ethyl-1H-indole], 202 to 205 °C. Regarding `CC(=O)Nc1ccc2c(c1)C(CN1CC=C(c3ccc(Cl)cc3)CC1)CC2` (stereo not drawn) (as salt: oxalate), the melting point lay in the range of 223 to 226 °C.

Turning to `CC(=O)Nc1ccc2c(c1)C(CN1CCC(O)(c3ccc(Cl)c(C(F)(F)F)c3)CC1)CC2` (stereo not drawn) (as salt: oxalate), the melting point fell in the range of 163 to 165 °C. The molecule `CC(=O)Nc1ccc2c(c1)C(CN1CCN(c3ccccc3Cl)CC1)CC2` (stereo not drawn) (as salt: hydrochloride) [Compound 4f, 1-(6-Acetylaminoindan-1-ylmethyl)-4-(2-chlorophenyl)piperazine] gave a melting point of 195 to 203 °C. On to `CC(=O)Nc1ccc2c(c1)C(CN1CC=C(c3c[nH]c4ccc(Cl)cc34)CC1)CS2` (stereo not drawn) (as salt: oxalate) [Compound 11b, 3-[1-(5-Acetylamino-2,3-dihydrobenzothiophen-3-ylmethyl)-1,2,3,6-tetrahydropyridin-4-yl]-5-chloro-1H-indole], for which the melting point lay within 214 to 216 °C. `Nc1ccc2c(c1)C(CN1CCN(c3ccc(Cl)cc3)CC1)CC2` (stereo not drawn) [Compound 2e, 1-(6-Aminoindan-1-ylmethyl)-4-(4-chlorophenyl)piperazine] came in with a melting point of 98 to 109 °C.

As usually defined, the melting point is the temperature, or range, at which the solid turns liquid. What is called IC50 is the concentration needed to halve the response being measured. Usually inhibition stands for how much of the control response was suppressed.
